In patent US9708316B2 (BRISTOL-MYERS SQUIBB COMPANY, priority 2014, dated 2017) one finds IC50 data, which are given here for 28 compounds.

The target in assay [1] is T1, HIS-TGFβR1 T204D (Homo sapiens, UniProt P36897, T204D).
T1 sequence (P36897 34-503 T204D): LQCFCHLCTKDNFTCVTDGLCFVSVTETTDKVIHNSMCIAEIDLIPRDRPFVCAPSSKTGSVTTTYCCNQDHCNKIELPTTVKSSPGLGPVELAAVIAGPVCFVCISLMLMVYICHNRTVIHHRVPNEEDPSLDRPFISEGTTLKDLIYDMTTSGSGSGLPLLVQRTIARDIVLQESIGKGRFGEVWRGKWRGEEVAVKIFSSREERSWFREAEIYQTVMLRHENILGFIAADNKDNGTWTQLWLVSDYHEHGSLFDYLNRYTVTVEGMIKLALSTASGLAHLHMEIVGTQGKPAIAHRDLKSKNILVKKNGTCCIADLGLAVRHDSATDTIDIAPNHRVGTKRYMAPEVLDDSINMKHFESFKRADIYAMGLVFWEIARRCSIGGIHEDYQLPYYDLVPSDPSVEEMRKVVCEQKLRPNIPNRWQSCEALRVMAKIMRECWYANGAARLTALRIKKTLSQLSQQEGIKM
The experiment in a line: HTRF probe-displacement assay, HIS-TGFβR1 T204D. The conditions noted are these: read-out: TGFβR1 (μM) IC50. It counts as binding.

The target of assay [2] is HIS-TGFβR2 WT (Homo sapiens, UniProt P37173). Put plainly: HTRF probe-displacement assay, HIS-TGFβR2 WT. It counts as binding. A general note: Time-resolved FRET reads energy transfer from a long-lived donor to a nearby acceptor.
Sequence of HIS-TGFβR2 WT (P37173 23-567): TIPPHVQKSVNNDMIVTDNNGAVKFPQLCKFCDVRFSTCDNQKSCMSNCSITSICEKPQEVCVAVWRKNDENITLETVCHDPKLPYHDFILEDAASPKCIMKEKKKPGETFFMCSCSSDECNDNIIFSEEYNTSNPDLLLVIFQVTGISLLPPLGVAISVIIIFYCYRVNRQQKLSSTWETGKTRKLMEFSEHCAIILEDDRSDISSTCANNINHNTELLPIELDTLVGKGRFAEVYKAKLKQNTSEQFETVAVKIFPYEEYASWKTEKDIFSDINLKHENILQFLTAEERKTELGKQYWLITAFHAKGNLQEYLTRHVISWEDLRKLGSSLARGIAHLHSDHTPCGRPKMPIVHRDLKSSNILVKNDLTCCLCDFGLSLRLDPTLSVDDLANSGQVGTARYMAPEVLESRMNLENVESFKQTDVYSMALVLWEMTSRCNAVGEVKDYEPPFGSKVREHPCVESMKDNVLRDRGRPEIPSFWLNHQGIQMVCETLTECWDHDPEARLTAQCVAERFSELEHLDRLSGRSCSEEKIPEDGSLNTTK

Regarding `COC(=O)c1cc(Cl)nc2c(-c3ccc(Cl)cn3)c(-c3ccnc(NC(C)=O)c3)[nH]c12` [Example 70, Methyl 5-chloro-3-(5-chloropyridin-2-yl)-2-(2-acetamidopyridin-4-yl)-1H-pyrrolo[3,2-b]pyridine-7-carboxylate], the concentration for half-maximal inhibition (IC50) in assay [1] was 7.73 µM; in assay [2] it was more than 15 µM.
In the same order, the values of `CC(=O)Nc1cc(-c2[nH]c3c(C)ccnc3c2-c2cccc(C(F)F)n2)ccn1` [Example 216, N-(4-(3-(6-(Difluoromethyl)pyridin-2-yl)-7-methyl-1H-pyrrolo[3,2-b]pyridin-2-yl)pyridin-2-yl)acetamide] are 0.0013 µM and 3.77 µM.
For `COc1ccc(-c2c(-c3ccnc(NC(C)=O)c3)[nH]c3cc(N4CCC(CO)CC4)cnc23)nc1` [Example 161, N-(4-(6-(4-(Hydroxymethyl)piperidin-l-yl)-3-(5-methoxypyridin-2-yl)-1H-pyrrolo[3,2-b]pyridin-2-yl)pyridin-2-yl)acetamide], the concentration for half-maximal inhibition (IC50) in assay [1] is 0.0126 µM; in assay [2] it was more than 15 µM.
Regarding `CCOc1cnc2c(-c3ccc(OC)cn3)c(-c3ccnc(NC(C)=O)c3)[nH]c2c1` [Example 96, N-(4-(6-Ethoxy-3-(5-methoxypyridin-2-yl)-1H-pyrrolo[3,2-b]pyridin-2-yl)pyridin-2-yl)acetamide], the concentration for half-maximal inhibition (IC50) was 0.001 µM in assay [1] and more than 15 µM in assay [2].
The corresponding values for `CC(=O)Nc1cc(-c2[nH]c3cc(F)cnc3c2-c2ncc(C)s2)ccn1` [Example 183, N-(4-(6-Fluoro-3-(5-methylthiazol-2-yl)-1H-pyrrolo[3,2-b]pyridin-2-yl)pyridin-2-yl)acetamide] are 0.003 µM and 0.407 µM.
For the compound `CC(=O)Nc1cc(-c2[nH]c3c(N4CCCC4)ccnc3c2-c2cccc(C(F)F)n2)ccn1` [Example 156, N-(4-{3-[6-(Difluoromethyl)pyridin-2-yl]-7-(pyrrolidin-1-yl)-1H-pyrrolo[3,2-b]pyridin-2-yl}pyridin-2-yl)acetamide], the half-maximal inhibitory concentration (IC50) in assay [1] is 0.188 µM; in assay [2], more than 15 µM.
The corresponding values for `COc1ccc(-c2c(-c3ccnc(NC(C)=O)c3)[nH]c3c(OC)ccnc23)cn1` [Example 269, N-(4-(7-Methoxy-3-(6-methoxypyridin-3-yl)-1H-pyrrolo[3,2-b]pyridin-2-yl)pyridin-2-yl)acetamide] are 0.067 µM and 1.04 µM.
As to `CC(=O)Nc1cc(-c2[nH]c3cccnc3c2-c2ccc3cnccc3c2)ccn1` [Example 17, N-{4-[3-(Isoquinolin-6-yl)-1H-pyrrolo[3,2-b]pyridin-2-yl]pyridin-2-yl}acetamide], the IC50 was 0.014 µM in assay [1] and more than 15 µM in assay [2].
On to `CC(=O)Nc1cc(-c2[nH]c3c(C)ccnc3c2-c2nc(C(F)F)cs2)ccn1` [Example 220, N-(4-(3-(4-(Difluoromethyl)thiazol-2-yl)-7-methyl-1H-pyrrolo[3,2-b]pyridin-2-yl)pyridin-2-yl)acetamide], for which the half-inhibitory concentration (IC50) turned out to be 0.0005 µM in assay [1] and 1.38 µM in assay [2].
The corresponding values for `COc1ccc(-c2c(-c3ccnc(NC(=O)CN4CCN(CCO)CC4)c3)[nH]c3cc(Cl)cnc23)cn1` [Example 235, N-(4-(6-Chloro-3-(6-methoxypyridin-3-yl)-1H-pyrrolo[3,2-b]pyridin-2-yl)pyridin-2-yl)-2-(4-(2-hydroxyethyl)piperazin-1-yl)acetamide] are 0.001 µM and 0.176 µM.
The corresponding values for `COc1ccc(-c2c(-c3ccnc(NC(C)=O)c3)[nH]c3c(C(O)C(C)C)ccnc23)cn1` (centres unmarked) [Example 300, N-(4-(7-(1-Hydroxy-2-methylpropyl)-3-(6-methoxypyridin-3-yl)-1H-pyrrolo[3,2-b]pyridin-2-yl)pyridin-2-yl)acetamide] are 0.003 µM and 0.017 µM.
The corresponding values for `COc1ccc(-c2c(-c3ccnc(N)c3)[nH]c3cc(Cl)cnc23)cn1` [Example 289, 4-(6-Chloro-3-(6-methoxypyridin-3-yl)-1H-pyrrolo[3,2-b]pyridin-2-yl)pyridin-2-amine] are 0.002 µM and 0.794 µM.
With `CN(C)C1CCN(CC(=O)Nc2cc(-c3[nH]c4cc(Cl)cnc4c3-c3ccc(F)cn3)ccn2)CC1` [Example 245, N-(4-(6-Chloro-3-(5-fluoropyridin-2-yl)-1H-pyrrolo[3,2-b]pyridin-2-yl)pyridin-2-yl)-2-(4-(dimethylamino)piperidin-1-yl)acetamide], the half-inhibitory concentration (IC50) is 0.002 µM in assay [1] and 4.07 µM in assay [2].
As to `CC(=O)Nc1cc(-c2[nH]c3cccnc3c2-c2nc(CO)cs2)ccn1` [Example 204, N-(4-(3-(4-(Hydroxymethyl)thiazol-2-yl)-1H-pyrrolo[3,2-b]pyridin-2-yl)pyridin-2-yl)acetamide], the IC50 was 0.0055 µM in assay [1] and 0.111 µM in assay [2].
For `COCCOc1cnc2c(-c3ccc(OC)cn3)c(-c3ccnc(NC(C)=O)c3)[nH]c2c1` [Example 95, N-(4-(6-(2-Methoxyethoxy)-3-(5-methoxypyridin-2-yl)-1H-pyrrolo[3,2-b]pyridin-2-yl)pyridin-2-yl)acetamide], the IC50 in assay [1] was 0.002 µM; in assay [2] it was more than 15 µM.
Regarding `CC(=O)Nc1cc(-c2[nH]c3cccnc3c2-c2ccc3[nH]ccc3c2)ccn1` [Example 20, N-{4-[3-(1H-Indol-5-yl)-1H-pyrrolo[3,2-b]pyridin-2-yl]pyridin-2-yl}acetamide], the half-maximal inhibitory concentration (IC50) in assay [1] is 0.005 µM; in assay [2] it was 1.69 µM.
As for `CC(=O)Nc1cc(-c2[nH]c3cccnc3c2-c2cc(C)ccn2)ccn1` [Example 31, N-{4-[3-(4-Methylpyridin-2-yl)-1H-pyrrolo[3,2-b]pyridin-2-yl]pyridin-2-yl}acetamide], the concentration for half-maximal inhibition (IC50) in assay [1] came out at 0.019 µM; in assay [2] it was 0.66 µM.
In the case of `CC(=O)Nc1cc(-c2[nH]c3cccnc3c2-c2cnn(C)c2)ccn1` [Example 187, N-(4-(3-(1-Methyl-1H-pyrazol-4-yl)-1H-pyrrolo[3,2-b]pyridin-2-yl)pyridin-2-yl)acetamide], the IC50 in assay [1] stood at 0.0587 µM; in assay [2], 0.424 µM.
The corresponding values for `COc1cnc2c(-c3nc(C)cs3)c(-c3ccnc(NC(C)=O)c3)[nH]c2c1` [Example 208, N-(4-(6-Methoxy-3-(4-methylthiazol-2-yl)-1H-pyrrolo[3,2-b]pyridin-2-yl)pyridin-2-yl)acetamide] are 0.0006 µM and 0.044 µM.
The corresponding values for `CCOc1ccc(-c2c(-c3ccnc(NC(C)=O)c3)[nH]c3cc(Cl)cnc23)nc1` [Example 253, N-(4-(6-Chloro-3-(5-ethoxypyridin-2-yl)-1H-pyrrolo[3,2-b]pyridin-2-yl)pyridin-2-yl)acetamide] are 0.004 µM and more than 15 µM.
The corresponding values for `COc1ccc(-c2c(-c3ccnc(NC(=O)CN(C)C)c3)[nH]c3cc(OC)cnc23)nc1` [Example 115, 2-(Dimethylamino)-N-{4-[6-methoxy-3-(5-methoxypyridin-2-yl)-1H-pyrrolo[3,2-b]pyridin-2-yl]pyridin-2-yl}acetamide] are 0.001 µM and 8.68 µM.
On to `CC(=O)Nc1cc(-c2[nH]c3cccnc3c2-c2nc(C#N)cs2)ccn1` [Example 203, N-(4-(3-(4-Cyanothiazol-2-yl)-1H-pyrrolo[3,2-b]pyridin-2-yl)pyridin-2-yl)acetamide], for which the figures for the IC50 in assay [1] and in assay [2] were 0.774 µM and more than 15 µM, respectively.
The corresponding values for `CC(=O)Nc1cc(-c2[nH]c3cc(Br)cnc3c2-c2cccc(C(F)F)n2)ccn1` [Example 272, N-(4-(6-Bromo-3-(6-(difluoromethyl)pyridin-2-yl)-1H-pyrrolo[3,2-b]pyridin-2-yl)pyridin-2-yl)acetamide] are 0.001 µM and 1.85 µM.
The corresponding values for `CC(=O)Nc1cc(-c2[nH]c3cc(Cl)cnc3c2-c2nc(C)ns2)ccn1` [Example 179, N-(4-(6-chloro-3-(3-methyl-1,2,4-thiadiazol-5-yl)-1H-pyrrolo[3,2-b]pyrdin-2-yl)pyridin-2-yl)acetamide] are 0.058 µM and more than 15 µM.
As to `CC(=O)Nc1cc(-c2[nH]c3c(C(C)O)ccnc3c2-c2cccc(F)n2)ccn1` (centres unmarked) [Example 262, N-(4-(3-(6-Fluoropyridin-2-yl)-7-(1-hydroxyethyl)-1H-pyrrolo[3,2-b]pyridin-2-yl)pyridin-2-yl)acetamide], the IC50 in assay [1] was determined as 0.002 µM; in assay [2] it was 0.267 µM.
For `CC(=O)Nc1cc(-c2[nH]c3c(C)ccnc3c2-c2ncc(C)s2)ccn1` [Example 218, N-(4-(7-Methyl-3-(5-methylthiazol-2-yl)-1H-pyrrolo[3,2-b]pyridin-2-yl)pyridin-2-yl)acetamide], the figures for the IC50 in assay [1] and in assay [2] were 0.0017 µM and 0.594 µM, respectively.
In the same order, the values of `CC(=O)Nc1cc(-c2[nH]c3c(C(C)O)ccnc3c2-c2nc(C)cs2)ccn1` (centres unmarked) [Example 232, N-(4-(7-(1-Hydroxyethyl)-3-(4-methylthiazol-2-yl)-1H-pyrrolo[3,2-b]pyridin-2-yl)pyridin-2-yl)acetamide] are 0.003 µM and 0.115 µM.
The corresponding values for `CCCNCc1cnc2c(-c3ccc(OC)cn3)c(-c3ccnc(NC(C)=O)c3)[nH]c2c1` [Example 294, N-(4-(3-(5-methoxypyridin-2-yl)-6-((propylamino)methyl)-1H-pyrrolo[3,2-b]pyridin-2-yl)pyridin-2-yl)acetamide] are 0.063 µM and more than 15 µM.

In general, IC50 refers to the concentration that inhibits the measured activity by half.
